The test system of assay [1] is B16F10 tumors. Description: Myeloid cell and CD3+ T-cell frequencies in excised B16F10 tumors (spectral flow cytometry). In kind it is in vivo, mice. The settings on record: CBG 2.5 mg/kg or 3704 3.75 mg/kg i.p., tumors day 14. Here is the method:
(§1) All procedures involving animals were conducted in accordance with the standards approved by the Technion Animal Care and Use Ethics Committee and the studies adhered to the Technion Code for Experimentation on Animals. To induce tumors, B16F10 cells grown to a confluency of ˜75% were resuspended to a concentration of 1×10^6 cells in 200 ul sterile PBS and transplanted subcutaneously into the right flank of 8-10-week-old female WT C57B6/L mice (Envigo, 16.8±0.78 g). After either 24 hours or 3 days, mice were randomly divided into groups and treated as indicated with either a vehicle of Cannabis extract solvent (18:1:1 ratio of DDW+0.9% NaCl, Sigma, Cat #S7653; Cremophor® EL, Cat #238470; Ethanol, Sigma, #Cat 111727), CAN (100 mg/kg), synthetic CBG (2.5 mg/kg) or 3704 (3.75 mg/kg) for 5 days, then 2 days off and again for 4 days. Tumor volume was measured from day 10 to 14 (endpoint) using a vernier caliper and calculated according to the formula […] and all tumors were weighed at the endpoint of the experiments with an analytical scale.
To prepare single-cell suspensions from the tumors, on day 14 the tumors were excised from the mice and placed in Hanks' Balanced Salt solution (HBSS, Sigma; Cat #H6648) containing 20 mg/ml DNase I (Sigma, Cat #D5025), 1 mg/ml collagenase D from Clostridium histolyticum (Sigma-Aldrich, Cat #C5138) and 0.1 mg/ml hyaluronidase (Sigma-Aldrich, Cat #6254). Tumors were mechanically digested using a scalpel and the gentleMACS™M Dissociator (Miltenyi Biotec). The resulting solution was filtered through a 100 μm filter (Alex Red Ltd. Cat #SO SCS1002) and centrifuged for 10 minutes at 400×g. The supernatant was further used for cytokine and chemokine concentration measurements. For the characterization of myeloid cell frequencies in tumors, the cell pellet was further processed as follows: red blood cells were lysed using the red blood lysis buffer (Biological industries, Cat #01-888-1B), which was neutralized by washing with PBS+2% FBS and centrifuging 10 minutes at 400×g. After centrifugation, cells were resuspended in 40% percoll gradient solution (prepared from 100% percoll, Cytiva, #17089101) and then 80% percoll was added on top of the 40% solution without mixing. The cell suspension was centrifuged at room temperature for 30 minutes without acceleration and break at 500×g. Cells were isolated from the interphase between the 40% and 80% percoll solutions and washed with PBS +2% FBS. Finally, cells were stained with extracellular markers for CD3+ T-cells and myeloid cells, and subpopulation frequency was measured by spectral flow cytometry using Cytek® Aurora (Cytek Biosciences). […]

Assay [2] deals with CSF-1. Description: ELISA of secreted CSF-1 in media of B16F10 cells. As to conditions: summary statement of the discussion. In kind it is cell-based, murine. Here is the method:
(§2) The media from B16F10 and A375 cell lines, or homogenates from B16F10 tumors, that were treated as indicated for 24 hours, were collected and the protein concentration of MCP-1, MIP-2, C-C Motif Chemokine Ligand 5 (CCL5), and CSF-1 were measured by Quantikine Mouse M-CSF Immunoassay solid-phase ELISA kit (R&D systems, Cat #MMC00) as described in the manufacture's protocol.
On the technique in general: In an ELISA, binding on a coated surface is turned into a signal by an enzyme label.

Assay [3] relates to CSF-1. Description: ELISA of secreted CSF-1 in media of A375 cells. In kind it is cell-based, human. As to conditions: 1.5 μg/ml CBG, 2 μg/ml 3704, 6 μg/ml CAN. Here is the method: as §2
Assay [4] deals with B16F10 tumors. Description: Mouse tumor model: B16F10 cells transplanted subcutaneously, tumor volume and weight. As to conditions: CBG 2.5 mg/kg or 3704 3.75 mg/kg intraperitoneally. In kind it is in vivo, mice. Here is the method: as §1
The test system of the next assay is BM-MDSCs. The experiment in a line: BM-MDSCs treated with conditioned media from treated B16F10 cells: myeloid subpopulation frequencies and F4/80. In kind it is cell-based, mice. The settings on record: for reduction in the F4/80 MFI in Ly6C+ cells compared to DMSO: CM from treated B16F10 cells. The procedure:
Bone-marrow-derived cells (BMDCs) were isolated from the fibula and tibia bones of healthy female WT C57BL/6 mice (8-12-week-old). Red blood cells were removed by using red blood lysis buffer (Biological industries, Cat #01-888-1B). Remaining cells were counted and 1×10^6 cells were seeded in complete RPMI (Sigma, Cat #R8758) containing 10% FBS (Sigma, Cat #F7524), 1% L-Glutamine (Sartorius, Cat #03-020-1B), 1% Penicillin/[…] (Sartorius, Cat #03-031-1B), 1% MEM-Eagle (Sartorius, Cat #01-340-1B), 2.5% HEPES (Sartorius, Cat #03-025-1B) and 1% sodium pyruvate (Sartorius, Cat #03-042-1B) and supplemented with 20 ng/ml of GM-CSF and IL-6 (R&D systems, 415-ML and 406-ML). Cells were incubated at 37° C. and 5% CO2 for 4 days and then treated with conditioned media, which was the media collected from B16F10 cells treated with either DMSO, CBG, or the high-CBG extract 3704 as indicated.
To differentiate the subpopulation of myeloid cells, BMDCs and myeloid cells from tumors were stained for the extracellular makers Ly6C-BV421 (BioLegend, Clone HK1.4; Cat #128032) or Ly6C-FITC (BioLegend, Cat #128096, Clone HK1.4), Ly6G-APC (BioLegend, Clone 1A8; Cat #127614), Ly6G-BV421 (BioLegend, Cat #127627, clone 1A8), PECy7-F4/80 (BioLegend, Clone BM8 Cat #123113), BV605-CD86 (BioLegend, Clone GL-1, Cat #105037), APC-CD206 (Biolegend, Clone CO68C2, Cat #141708) and BV711-CD45 (BioLegend, Clone 30F11, Cat #103147). Cells from tumors were also stained with PE-CD3+ (BioLegend, Clone 17A2, Cat #100206) to identify the overall T-cell population. To characterize the cells in the subpopulations, cells were fixed and permeabilized with the Intracellular Fixation and Permeabilization Buffer Set (eBioscience Cat #88-8824-00) and stained with FITC-iNOS (Thermo, Clone CXNFT, Cat #53592082) or FITC-Arginase-1 (Thermo, Clone AlexF5, Cat #53-3697-82). These cells were also stained with Fixable viability Dye (FVD)-eflour 780 (Thermo, Cat #65086514) to exclude dead cells.

Molecules are shown by their SMILES.

As for `CCCCCc1cc(O)c(C/C=C(\C)CCC=C(C)C)c(O)c1` [CBG, cannabigerol], in the assay with B16F10 tumors [1], the “CD3 T-cells frequencies in tumors relative to vehicle control” value is reported as “trend of increase in T-cells frequencies”; the “frequencies of MO-MDSC and PMN-MDSC subpopulations in tumors” value is given as “did not affect”; the “frequency of M2 macrophages in tumors relative to vehicle control” value is listed as “trend of a decreased frequency in M2 macrophages”. In addition, the “ratio between M1 and M2 macrophages (M2/M1) relative to vehicle control” value in the assay on B16F10 tumors [1] (calculated for each mouse) is reported as “trend of decreased ratio”. In the assay on CSF-1 [2], the “efficiency of CSF-1 secretion reduction, comparison between treatments (discussion)” value is reported as “reduce CSF-1 secretion more efficiently than the psychoactive THC”. In the assay with CSF-1 [3], the “CSF-1 secretion by A375 cells” value is “reduced CSF-1 secretion”. Further, the “Tumor weight on day 14 compared to vehicle” value in the assay on B16F10 tumors [4] (nine injections) was “weighed significantly less”. Moreover, in the assay on B16F10 tumors [4] (nine injections from day 3, measured daily day 10 to 14), the “Tumor volume compared to the vehicle-treated group” value is on record as “significantly lower in the CBG-treated group already at day 12”. Further, the “overall percentage of monocytes (Ly6C+/Ly6G− cells)” value with BM-MDSCs (BM-MDSCs treated 24 hours with CM from B16F10 treated with CBG 1.5 μg/ml or 3704 2 μg/ml) is on record as “did not change”. Besides, in the assay on BM-MDSCs (CM from B16F10 treated with CBG 1.5 μg/ml or 3704 2 μg/ml), the “PMN-MDSC frequencies (Ly6C+/Ly6G+)” value is given as “not affected by any treatment”. In addition, in the assay with BM-MDSCs (CM from B16F10 treated with CBG 1.5 μg/ml or 3704 2 μg/ml, compared to B16F10 treated with DMSO), the “MO-MDSC (Ly6Chigh/Ly6G−) percentages” value is reported as “significant decrease in MO-MDSC percentages”. The “reduction in the F4/80 MFI in Ly6C+ cells compared to DMSO” value in the assay on BM-MDSCs (24 hours) is “trend was apparent after 24 hours”. The “reduction in the F4/80 MFI in Ly6C+ cells compared to DMSO” value in the assay with BM-MDSCs (48 hours) is “statistically significant after 48 hours”.
